Measurements from patent publication US20200261534A1, “NEW TREATMENTS OF MULTIPLE MYELOMA” (priority 2017, published 2020).
Read-outs that look alike come from different tables or passages of the source. Starred links: 1 amine or outer side, 2 acyl side, 3 side chain; linkers in the order of their positions; H or OH if unused. Positions of bridges follow the written chain, without caps; N, C: chain ends. Non-standard residues stand in square brackets, D forms with d. Residues, ends and D or L forms follow the SMILES beside them. ξ: configuration not given here. Biphenyl(4,4'-CH2)2 = c1cc(-c2ccc(C[*:2])cc2)ccc1C[*:1]; ξαMeNle(6-ylidene) = CC(CCCC=[*:3])(N[*:1])C(=O)[*:2]; X1 = CC(CCCCCCC=[*:3])(N[*:1])C(=O)[*:2]; Octanediyl(1,8) = C(CCCC[*:2])CCC[*:1]; ξC = NC(CS)C(=O)O

Tests used:
[1] = test system: RPMI-8266-LR5, lymphoblast (myeloma), selected for resistance to Melphalan; assay type: cell-based
Procedure: RPMI-8266-LR5, lymphoblast (myeloma), selected for resistance to Melphalan (Bellamy W T et al., Cancer Res. 1991 Feb. 1; 51(3):995-1002).
(§1) All cell lines were cultured in incubator at 37° C. in RPMI-1640 (Sigma R8758) medium with 10% of fetal bovine serum inactivated (FBS) and 2 mM glutamine (Sigma G7513). During the amplification step cells were centrifuged and transferred into the culturing medium. Cells were counted in a Neubauer chamber after labelling with Tripan-Blue.
(§2) Cells were seeded at a density of 10000 cells/well in 100 μl of medium in 96 well plates. After 24 h, the compounds to be tested were added to calculate the dose/response curve at the starting concentration of 100 μM with serial dilutions (1:1). Controls are the untreated cells. Each experiment was performed in triplicate.
(§3) Cells were incubated with the peptidomimetic compound (S09) at the indicated concentrations during 24-72 h in incubator under CO2 atmosphere at 37° C. Then, cell viability was measured by means of MTT (3-(4,5-dimethylthiazol-2-yl)-2,5-diphenyltetrazolium bromide) assay. Stock solution of MTT (475989 Calbiochem) was 5 mg/ml in PBS. 1×.10 μl/well of MTT solution were added and the plate was incubated for 3-4 hr. The medium was discarded and 100 μl of extracting buffer (PBS 1×, 15% SDS, 50% […] N,N-Dimethylformamide, pH 4.7) were added to each well. Plates were incubated for 16 h at room temperature under orbital shaking. Absorbance at 570 nm was finally measured. As negative control (experiment noise) 3 wells were treated with 20 μl/well of a solution of SDS 10% in H2O.
(§4) Data analysis was performed calculating the percentage of cell viability normalized vs. the values of negative control, which was considered equal to 100%. The dose/response curve was fitted through the sigmoidal equation dose-response (variable slope) and the IC50 values were calculated as follow:
(§5) Y=Bottom+(Top−Bottom)/(1+10^{[(LogIC50−X)*HillSlope]},
(§6) All cell lines were cultured in incubator at 37° C. in RPMI-1640 (Sigma R8758) medium with 10% of fetal bovine serum inactivated (FBS) and 2 mM glutamine (Sigma G7513).
as §2, with “of 10,000” for “of 10000”, “of 40” for “of 100”
as §3, with “compounds” for “compound (S09)”

[2] = test system: U266-LR7, lymphoblast (myeloma), selected for resistance to Melphalan; assay type: cell-based
Procedure: U266-LR7, lymphoblast (myeloma), selected for resistance to Melphalan (Alvarez-Fernández et al. Clin Cancer Res. 2013 May 15; 19(10):2677-87).
as §1, §2, §3, §4, §5
U266-LR7, lymphoblast (myeloma), selected for resistance to Melphalan (Alvarez-Fernandez et al. Clin Cancer Res. 2013 May 15; 19(10):2677-87).
as §6
as §2, with “of 10,000” for “of 10000”, “of 40” for “of 100”
as §3, with “compounds” for “compound (S09)”

[3] = test system: MBA-MD231, epithelial (breast cancer); test: MTT viability assay, MBA-MD231; assay type: cell-based
Procedure: MBA-MD231, epithelial (breast cancer), ECACC: 86012803 […] During the amplification step and the assays adherent cells were rinsed with DPBS (Dulbecco's Phosphate Buffered Saline, Sigma D1283) three times and afterward treated for 5 minutes with trypsin ([…]) (Gibco-BRL, 15400054) in solution of DPBS at 37° C., and, once detached, transferred in the culturing medium. No-adherent cells were centrifuged and transferred in the culturing medium. Cells were counted in a Neubauer chamber after labelling with Tripan-Blue. […] Cells were seeded at a density of 10,000 cells/well in 100 μl of medium in 96 well plates. […] Controls are the untreated cells. Each experiment was performed in triplicate. Cells were incubated with the compounds at the indicated concentrations during 24-72 h in incubator under CO2 atmosphere at 37° C. […] Stock solution of MTT (475989 Calbiochem) was 5 mg/ml in PBS. 1×.10 μl/well of MTT solution were added and the plate was incubated for 3-4 hr. […] Plates were incubated for 16 h at room temperature under orbital shaking. Absorbance at 570 nm was finally measured. […] The dose/response curve was fitted through the sigmoidal equation dose-response (variable slope) and the IC50 values were calculated as follow: […]

[4] = test system: MM1R, lymphoblast (myeloma), resistant to Dexamethasone
Procedure: MM1R, lymphoblast, (myeloma), ATCC® CRL-2975™, resistant to Dexamethasone
as §1, §2, §3, §4, §5, §6
as §2, with “of 10,000” for “of 10000”, “of 40” for “of 100”
as §3, with “compounds” for “compound (S09)”

[5] = test system: RPMI-8266, lymphoblast (myeloma); test: MTT viability assay, RPMI-8266; assay type: cell-based
Procedure: RPMI-8266, lymphoblast (myeloma), ATCC® CCL155™
as §1, §2, §3, §4, §5, §6
as §2, with “of 10,000” for “of 10000”, “of 40” for “of 100”
as §3, with “compounds” for “compound (S09)”

[6] = RPMI-LR5, 72 hr, Table 14, read-out: IC50 after 72 hr values
[7] = U266LR7, 24 hr, Table 13, read-out: IC50 after 24 hr values
[8] = U266LR7, 72 hr, Table 14, read-out: IC50 after 72 hr values
[9] = RPMI-LR5, 24 hr, Table 13, read-out: IC50 after 24 hr values

Row | Compound | IC50 [1, 6] | IC50 [2, 7] | IC50 [2, 8] | IC50 [3] | IC50 ([4]; 24 h) | IC50 ([4]; 72 h) | IC50 ([5]; 24 h) | IC50 ([5]; 72 h) | IC50 [1, 9] | IC50 ([1]; RPMI-LR5 (resistant to Melphalan), MTT, 24-72 h, Table 7, read-out: IC50 values in μM for S09) | IC50 ([2]; U266LR7 (resistant to Melphalan), MTT, 24-72 h, Table 7, read-out: IC50 values in μM for S09) | IC50 ([3]; MBA-MD231, MTT, 24-72 h, Table 12, read-out: IC50 values) | IC50 ([4]; read-out: IC50 values in μM for S09, MM1R (resistant to Dexamethasone), MTT, 24-72 h, Table 7) | IC50 ([5]; RPMI, MTT, 24-72 h, Table 7, read-out: IC50 values in μM for S09)
1 | CC[C@H](C)[C@H](NC(=O)[C@H](Cc1ccc(O)cc1)NC(=O)[C@H](C)NC(=O)C1CSCCCCCCCCSCC(NC(=O)[C@H](CCCCN)NC(=O)[C@@H]2CCCN2C(=O)[C@H](C)N)C(=O)N[C@@H](C(C)C)C(=O)N[C@@H]([C@@H](C)CC)C(=O)N[C@@H](CC(C)C)C(=O)N[C@@H](CCCCN)C(=O)N[C@@H](CCCCN)C(=O)N[C@@H](C)C(=O)N1)C(=O)N[C@@H](CC(C)C)C(=O)N[C@@H](CO)C(=O)O (stereo partly shown) [IDP-P1708160] (H-APK[ξC]VILKKA[ξC]AYILS-OH; linker 4-11 via Octanediyl(1,8); N-terminus and C-terminus assumed) | 7.5 µM | 2.5 µM | 2.5 µM | 42 ± 2 µM | 15 µM | 10 µM | 15 µM | 15 µM | – | – | – | – | – | –
2 | CC[C@H](C)[C@H](NC(=O)[C@H](Cc1ccc(O)cc1)NC(=O)[C@H](C)NC(=O)[C@@H]1CSCc2ccc(cc2)-c2ccc(cc2)CSC[C@H](NC(=O)[C@H](CCCCN)NC(=O)[C@@H]2CCCN2C(=O)[C@H](C)N)C(=O)N[C@@H](C(C)C)C(=O)N[C@@H]([C@@H](C)CC)C(=O)N[C@@H](CC(C)C)C(=O)N[C@@H](CCCCN)C(=O)N[C@@H](CCCCN)C(=O)N[C@@H](C)C(=O)N1)C(=O)N[C@@H](CC(C)C)C(=O)N[C@@H](CO)C(=O)O [IDP-P1708161] (H-APKCVILKKACAYILS-OH; linker 4-11 via Biphenyl(4,4'-CH2)2; N-terminus and C-terminus assumed) | 35 µM | – | – | 29 ± 2 µM | 12.5 µM | 15 µM | 5 µM | 7.5 µM | 35 µM | – | – | – | – | –
3 | CC[C@H](C)[C@H](NC(=O)[C@H](Cc1ccc(O)cc1)NC(=O)[C@H](C)NC(=O)C1(C)CCCC=CCCCCCCC(C)(NC(=O)[C@H](CCCCN)NC(=O)[C@@H]2CCCN2C(=O)[C@H](C)N)C(=O)N[C@@H](C(C)C)C(=O)N[C@@H]([C@@H](C)CC)C(=O)N[C@@H](CC(C)C)C(=O)N[C@@H](CCCCN)C(=O)N[C@@H](CCCCN)C(=O)N[C@@H](C)C(=O)N1)C(=O)N[C@@H](CC(C)C)C(=O)N[C@@H](CO)C(=O)O (stereo partly shown) [S09, APKXVILKKAXAYILS—OH] (H-APK[X1]VILKKA[ξαMeNle(6-ylidene)]AYILS-OH; staple 4-11; N-terminus assumed) | – | – | – | – | – | – | – | – | – | 11.4 µM | 9.7 µM | 4.9 ± 0.3 µM | 8.3 µM | 7.4 µM
4 | CC[C@H](C)[C@H](NC(=O)[C@H](Cc1ccc(O)cc1)NC(=O)[C@H](C)NC(=O)C1(C)CCCC=CCCCCCCC(C)(NC(=O)[C@H](CCCCN)NC(=O)[C@@H]2CCCN2C(=O)[C@H](C)N)C(=O)N[C@@H](C(C)C)C(=O)N[C@@H]([C@@H](C)CC)C(=O)N[C@@H](Cc2ccccc2)C(=O)N[C@@H](CCCCN)C(=O)N[C@@H](CCCCN)C(=O)N[C@@H](C)C(=O)N1)C(=O)N[C@@H](CC(C)C)C(=O)N[C@@H](CO)C(=O)O (stereo partly shown) [S14, APKXVIFKKAXAYILS—OH] (H-APK[X1]VIFKKA[ξαMeNle(6-ylidene)]AYILS-OH; staple 4-11; N-terminus assumed) | 10 µM | 10 µM | 10 µM | – | 15 µM | 15 µM | 10 µM | 10 µM | 10 µM | – | – | – | – | –
